Earlier results as cited in US20060275294A1, “METHOD OF PREVENTION AND TREATMENT OF AGING, AGE-RELATED DISORDERS AND/OR AGE-RELATED MANIFESTATIONS INCLUDING ATHEROSCLEROSIS, PERIPHERAL VASCULAR DISEASE, CORONARY ARTERY DISEASE, OSTEOPOROSIS, ARTHRITIS, TYPE 2 DIABETES, DEMENTIA, ALZHEIMERS DISEASE AND CANCER” (priority 2002, published 2006).
Like-named read-outs stand apart in the source and are kept apart here.

Key:
Jurkat T cells = conditions: cited from earlier work
Rat VSMC = conditions: 50 microM, IL-6 stimulated; cited from earlier work
STAT1 and STAT3 = conditions: cited from earlier work
[1] = test system: human endothelial cells (EC); conditions: 100 ug/ml for DHA, EPA; 24 h supernatants, ELISA; cited from earlier work
[2] = test system: rat vascular smooth muscle cells; conditions: cited from earlier work
Yorkshire swine = conditions: 20 mg/kg/day, 5 months, cited from earlier work
Male Wistar rats [3] = conditions: rats; cited from earlier work
[4] = test system: cultured human astrocytes; conditions: cited from earlier work
[5] = test system: three human pancreatic cancer cell types; conditions: cited from earlier work
Male Wistar rats [6] = conditions: administered to every diet group; cited from earlier work
JB6 cell = conditions: cited from earlier work
[7] = molecular target: fAbeta(1-40) and fAbeta(1-42) (Homo sapiens, UniProt P05067); conditions: cited from earlier work; for fAbeta formation from Abeta(1-40) and Abeta(1-42): in vitro
fAbeta(1-40) and fAbeta(1-42), sequence (P05067 672-711 limits assumed): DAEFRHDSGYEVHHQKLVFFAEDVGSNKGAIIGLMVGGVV

myeloma cell lines = conditions: cited from earlier work
STAT3 and ERK1/2 = conditions: cited from earlier work
MM cells = conditions: cited from earlier work
IL-6 = conditions: in vitro; cited from earlier work
[8] = test system: subjects with type 2 diabetes associated with osteopenia; conditions: 200 mg/day for 2 weeks every 3 months, 1 yr; cited from earlier work
[9] = test system: IL-1 beta, IL-6, and TNF-alpha; conditions: cited from earlier work
[10] = test system: human microvascular endothelial cells (EC); conditions: cited from earlier work
[11] = test system: rats with adjuvant arthritic chronic pain; conditions: cited from earlier work
[12] = test system: human prostate carcinoma PC-3 cell line; conditions: cited from earlier work
[13] = test system: aortic strips isolated from virgin and late pregnant Sprague-Dawley rats; conditions: 10^-5 M, endothelium-intact strips, cited from earlier work
IKKbeta = IKKbeta (Homo sapiens, UniProt O14920); conditions: cited from earlier work
IKKbeta, sequence (O14920 whole entry, species assumed): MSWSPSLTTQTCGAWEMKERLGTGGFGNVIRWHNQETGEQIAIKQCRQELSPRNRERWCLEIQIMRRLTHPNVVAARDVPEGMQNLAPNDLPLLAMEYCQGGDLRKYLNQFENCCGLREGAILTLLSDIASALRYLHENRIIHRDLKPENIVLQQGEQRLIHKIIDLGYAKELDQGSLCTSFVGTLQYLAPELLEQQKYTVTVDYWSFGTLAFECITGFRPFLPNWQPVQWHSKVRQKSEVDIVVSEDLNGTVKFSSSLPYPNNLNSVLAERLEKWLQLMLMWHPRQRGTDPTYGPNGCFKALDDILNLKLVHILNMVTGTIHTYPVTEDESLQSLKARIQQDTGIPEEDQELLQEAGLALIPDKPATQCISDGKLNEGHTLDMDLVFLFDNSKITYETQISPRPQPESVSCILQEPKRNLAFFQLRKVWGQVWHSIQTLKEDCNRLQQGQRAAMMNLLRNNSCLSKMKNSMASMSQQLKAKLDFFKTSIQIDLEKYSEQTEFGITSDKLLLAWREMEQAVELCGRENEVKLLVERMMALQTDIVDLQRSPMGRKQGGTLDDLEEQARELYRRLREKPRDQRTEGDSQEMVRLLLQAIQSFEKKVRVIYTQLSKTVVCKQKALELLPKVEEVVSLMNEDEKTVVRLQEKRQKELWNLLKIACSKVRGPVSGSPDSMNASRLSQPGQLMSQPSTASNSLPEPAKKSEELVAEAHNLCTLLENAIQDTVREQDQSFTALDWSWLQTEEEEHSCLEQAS

Wistar rats = conditions: cited from earlier work
[14] = test system: rat primary astrocytes, microglia, and macrophages; conditions: cited from earlier work
mice = conditions: mouse, in vivo; cited from earlier work
rats = conditions: synthetic diet for 21 days; cited from earlier work
[15] = test system: Primary adipocytes from pig subcutaneous adipose tissue; conditions: cited from earlier work

## Oc1cc(O)c2c(c1)OC(c1ccc(O)c(O)c1)C(O)C2 (single isomer, unassigned; (+)) [CT, (+)-catechin]
Jurkat T cells; 1.7-17.2 microM, 24 h preincubation
  PMA-triggered increase in cell oxidants: prevented
Jurkat T cells; pretreatment
  PMA-induced NF-kappaB binding activity and transactivation of IL-2: decreased

## N#C/C(=C/c1ccc(O)c(O)c1)C(=O)NCc1ccccc1 [AG490]
Rat VSMC
  DNA synthesis: near complete inhibition
  STAT 3 activation and MCP-1 production: partially inhibited
STAT1 and STAT3
  CuLDL-induced enhancement of STAT1 and STAT3 Tyr-phosphorylation and DNA-binding activity: markedly prevented

## CCCCC/C=C\C/C=C\C/C=C\C/C=C\CCCC(=O)O [Arachidonic acid]
[1]
  production of IL-6 by unstimulated or stimulated EC: ineffective

## CCOc1nc2cccc(C(=O)O)c2n1Cc1ccc(-c2ccccc2-c2nnn[nH]2)cc1 [CV11974]
[2]
  expression of IL-6 mRNA induced by Ang II: completely blocked

## CC(O)(P(=O)(O)O)P(=O)(O)O [EHDP, ethane-1-hydroxy-1,1-diphosphonate]
Yorkshire swine; vs HL diet only
  extent of lesions, ratio of intima to media: significantly less
Yorkshire swine
  lesion calcium: significantly less
  ratio of lipid-rich necrotic debris area to area of media: significantly smaller

## Oc1cc(O)c2c(c1)O[C@H](c1cc(O)c(O)c(O)c1)[C@H](O)C2 [Epigallocatechin]
Male Wistar rats [3]
  myocardial ischemia reperfusion injury: attenuates

## CN(C)CCCn1cc(C2=C(c3c[nH]c4ccccc34)C(=O)NC2=O)c2ccccc21 [GF109203X]
[4]
  PDBu-increased secretion of APPalpha: blocked

## Cc1ccc(NC(=O)c2ccc(CN3CCN(C)CC3)cc2)cc1Nc1nccc(-c2cccnc2)n1 [Gleevec]
[5]
  inhibition of proliferation: ineffective

## COc1ccc2c(c1)c(CC(=O)O)c(C)n2C(=O)c1ccc(Cl)cc1 [Indomethacin]
Male Wistar rats [6]
  inflammatory process in adjuvant arthritis: strong inhibitory effect

## O=P(O)(O)O[C@H]1[C@H](OP(=O)(O)O)[C@@H](OP(=O)(O)O)[C@H](OP(=O)(O)O)[C@@H](OP(=O)(O)O)[C@H]1OP(=O)(O)O [InsP6, inositol hexaphosphate]
JB6 cell
  cell transformation: inhibited

## CC(Cc1ccc(O)c(O)c1)C(C)Cc1ccc(O)c(O)c1 (stereo not drawn) [NDGA, Nordihydroguaiaretic acid]
[7]
  fAbeta formation from Abeta(1-40) and Abeta(1-42): inhibit

## CCCC(=O)O[C@@H]1[C@@H](C)[C@@]2(O)[C@@H](C=C(CO)C[C@]3(O)C(=O)C(C)=C[C@@H]23)[C@@H]2C(C)(C)[C@]12OC(=O)CCC [PDBu, Phorbol 12, 13-dibutyrate]
[4]
  increase of secretion of APPalpha over control: 2-3 fold

## S=C=NCCc1ccccc1 [PEITC, phenethyl isothiocyanate]
JB6 cell
  cell transformation: inhibited cell transformation

## Cn1cncc1[C@@](N)(c1ccc(Cl)cc1)c1ccc2c(c1)c(-c1cccc(Cl)c1)cc(=O)n2C [R115777]
Myeloma cell lines
  growth of three myeloma cell lines: significant and dose-dependent growth inhibition
Myeloma cell lines; myeloma cells
  apoptosis: significant and time-dependent apoptosis
STAT3 and ERK1/2; 10 and 5 microM
  phosphorylation of STAT3 and ERK1/2 induced by IL-6: partially blocked
STAT3 and ERK1/2; 15 microM
  phosphorylation of STAT3 and ERK1/2 induced by IL-6: totally blocked

## O=C(OC[C@H]1O[C@@H](OC(=O)c2cc(O)c(O)c(OC(=O)c3cc(O)c(O)c(O)c3)c2)[C@H](OC(=O)c2cc(O)c(O)c(OC(=O)c3cc(O)c(O)c(O)c3)c2)[C@@H](OC(=O)c2cc(O)c(O)c(OC(=O)c3cc(O)c(O)c(O)c3)c2)[C@@H]1OC(=O)c1cc(O)c(O)c(OC(=O)c2cc(O)c(O)c(O)c2)c1)c1cc(O)c(O)c(OC(=O)c2cc(O)c(O)c(O)c2)c1 [TA, tannic acid]
[7]
  fAbeta formation from Abeta(1-40) and Abeta(1-42): dose-dependently inhibited
[7]; pH 7.5, 37 degrees C, read-out: effective concentrations (EC50) for formation, extension and destabilization of fAbetas
  EC50: < 0.1 µM

## COc1cc(/C=C/C(=O)CC(=O)/C=C/c2ccc(O)c(OC)c2)ccc1O [curcumin, diferuloylmethane]
MM cells; ex vivo treatment of patient MM cells
  adhesion to bone marrow stromal cells, cytokine secretion, viability of cells: decrease
MM cells; human MM cells
  expression of NF-kappaB-regulated gene products incl. interleukin-6: down-regulated

## C[C@]12CC[C@@H]3c4ccc(O)cc4CC[C@H]3[C@@H]1CC[C@@H]2O [estradiol, 17beta-estradiol]
IL-6
  IL-6 protein and mRNA production: inhibits

## CC(O)(P(=O)(O)O)P(=O)(O)O [etidronate]
[8]
  change in intima-media thickness (mean±SE): −0.038±0.011 mm

## CO[C@H]1[C@@H](OC)C[C@H](C)[C@@H](OC)C2=CC(=O)C=C(NC(=O)/C(C)=C/C=C\[C@H](OC)[C@@H](OC(N)=O)/C(C)=C/[C@@H]1C)C2=O [herbimycin A]
[5]; three cell lines, read-out: mean IC(50) proliferation
  IC50: 1.71 µM
[9]; 1.7 microM
  LPS-induced increase in IL-1 beta, IL-6, and TNF-alpha mRNA levels: completely or more than 80% blocked
[9]
  LPS activation of NF-kappa B: reduced
  LPS-induced IL-6 protein synthesis and IL-6 bioactivity: reduced to baseline levels

## O=P([O-])(O)C(NC1CCCCCC1)P(=O)([O-])O.[Na+].[Na+] [incadronate disodium]
[10]; AGE-exposed EC
  activation of NF-kappaB and AP-1 and up-regulation of VEGF mRNA: significantly prevented
[10]
  AGE-induced increase in DNA synthesis and tube formation: completely inhibit

## CC(C)Oc1ccc2c(=O)c(-c3ccccc3)coc2c1 [ipriflavone, 7-isopropoxyisoflavone]
[11]; 100 mg/kg/day oral, 2 weeks after start
  analgesic effects: Analgesic effects were observed
[11]; 3 weeks, females
  synovitis, periosteal new bone formation and bone destruction: improved

## C=C(C)[C@@H]1CC=C(C(=O)O)CC1 [perillic acid]
[12]
  IL-6- and OM-mediated effects (growth, resistance to etoposide and cisplatin): inhibited

## CNC[C@H](O)c1cccc(O)c1 [phenylephrine]
[13]; pregnant rats
  increase in active stress: 4.2±0.3 ×104 N/m2
[13]; virgin rats
  increase in active stress: 5.1±0.3 ×104 N/m2

## Oc1ccc(C=Cc2cc(O)cc(O)c2)cc1 [resveratrol]
IKKbeta
  activation of IKKbeta: inhibit or suppress
JB6 cell
  cell transformation: inhibited cell transformation

## C[C@@H]1O[C@@H](OC[C@H]2O[C@@H](Oc3c(-c4ccc(O)c(O)c4)oc4cc(O)cc(O)c4c3=O)[C@H](O)[C@@H](O)[C@@H]2O)[C@H](O)[C@H](O)[C@H]1O [rutin, quercetin-3-O-glucose rhamnose]
Wistar rats; OVX+R rats, HPLC
  mean plasma concentration of active metabolites (quercetin and isorhamnetin): 9.46 ± 1 µM
Wistar rats; rat, in vivo
  uterotrophic activity: devoid of any uterotrophic activity

## O=C([O-])Cc1ccccc1.[Na+] [sodium phenylacetate]
[14]; astrocytes
  LPS-mediated activation of NF kappa B: Inhibition
[14]; rat primary astrocytes, microglia, macrophages
  LPS-induced expression of TNF-alpha, IL-1beta, and IL-6: inhibited
[14]; rat primary astrocytes
  LPS and cytokine-mediated production of NO and expression of iNOS: inhibit

## C=C(CC[C@]12O[C@H](C(=O)O)[C@@](O)(C(=O)O)[C@](C(=O)O)(O1)[C@H](OC(=O)/C=C/[C@@H](C)C[C@@H](C)CC)[C@H]2O)[C@@H](OC(C)=O)[C@H](C)Cc1ccccc1 [squalestatin]
mice
  anti-inflammatory effect: did not have any anti-inflammatory effect

## Lavendustin
[5]
  inhibition of proliferation: ineffective

## vitamin E
rats
  endotoxin induced IL-6 concentration: significantly lower

B1: adiponectin: adiponectin (protein, UniProt Q15848 19-244, looked up)
Adiponectin: ETTTQGPGVLLPLPKGACTGWMAGIPGHPGHNGAPGRDGRDGTPGEKGEKGDPGLIGPKGDIGETGVPGAEGPRGFPGIQGRKGEPGEGAYVYRSAFSVGLETYVTIPNMPIRFTKIFYNQQNHYDGSTGKFHCNIPGLYYFAYHITVYMKDVKVSLFKKDKAMLFTYDQYQENNVDQASGSVLLHLEVGDQVWLQVYGEGERNGLYADNDNDSTFTGFLLYHDTN
[15]; 30 microg/ml, LPS 10 microg/ml
  NF-kappaB activation and induction of IL-6 expression by LPS: suppressed
[15]
  PPARgamma2 mRNA: upregulation
